pKi: −log10 of the molar value.
target: T1, 11β-hsd-1 enzyme (Homo sapiens, UniProt P28845); assay: 11β-hsd-1 enzyme assay, Kiapp determination (3H-cortisone to cortisol, radio-HPLC); format: biochemical; details: read-out: Ki app
T1 sequence (P28845 whole entry, species assumed): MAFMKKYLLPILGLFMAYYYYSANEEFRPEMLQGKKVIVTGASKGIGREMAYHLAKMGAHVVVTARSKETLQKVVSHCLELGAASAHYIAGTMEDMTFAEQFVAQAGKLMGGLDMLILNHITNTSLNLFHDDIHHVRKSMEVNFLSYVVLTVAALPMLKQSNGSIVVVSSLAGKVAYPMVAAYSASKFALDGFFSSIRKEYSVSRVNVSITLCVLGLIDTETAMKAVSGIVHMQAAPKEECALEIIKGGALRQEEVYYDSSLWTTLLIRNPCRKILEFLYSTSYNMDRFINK

Row | SMILES | pKi
1 | CCN(CC)C(=O)Cc1cccc(NS(=O)(=O)c2cccc(Cl)c2C)n1 [Example 20] | 6.66
2 | CCN(CC)C(=O)Cc1cccc(NS(=O)(=O)c2ccc(C(F)(F)F)cc2)n1 [Example 21] | 6.32

target: T1, 11β-hsd-1 enzyme; assay: 11β-hsd-1 enzyme assay, percentage of inhibition (3H-cortisone to cortisol, radio-HPLC); format: biochemical; details: 0.1 uM; read-out: % inh @ 0.1 uM

Row | SMILES | inhibition at 0.1 µM [%]
3 | Cc1cccc(NS(=O)(=O)c2ccc(-c3cccc(C#N)c3)cc2)n1 [Example 132] | 61.7
4 | Cc1cccc(NS(=O)(=O)c2ccc(-c3cc(Cl)ccc3Cl)cc2)n1 [Example 134] | 83.5
5 | COc1ccc(-c2ccc(S(=O)(=O)Nc3cccc(C)n3)cc2)c(OC)c1 [Example 135] | 49.1
6 | Cc1cccc(NS(=O)(=O)c2ccc(-c3ccc4ccccc4c3)cc2)n1 [Example 137] | 79
7 | Cc1cccc(NS(=O)(=O)c2ccc(-c3ccc4c(c3)OCO4)cc2)n1 [Example 138] | 91.2
8 | CSc1ccccc1-c1ccc(S(=O)(=O)Nc2cccc(C)n2)cc1 [Example 139] | 37.9
9 | Cc1cccc(NS(=O)(=O)c2ccc(-c3ccc(Cl)c(Cl)c3)cc2)n1 [Example 140] | 91
10 | CCSc1ccc(-c2ccc(S(=O)(=O)Nc3cccc(C)n3)cc2)cc1 [Example 141] | 83.8
11 | Cc1cccc(NS(=O)(=O)c2ccc(-c3ccc(F)cc3F)cc2)n1 [Example 142] | 84.5
12 | Cc1cccc(NS(=O)(=O)c2ccc(-c3ccc(OC(F)(F)F)cc3)cc2)n1 [Example 144] | 86.8
13 | Cc1cccc(NS(=O)(=O)c2ccc(-c3cc(F)cc(F)c3)cc2)n1 [Example 145] | 80.6
14 | Cc1cccc(NS(=O)(=O)c2ccc(-c3ccc(CO)cc3)cc2)n1 [Example 146] | 46.5
15 | COc1ccc(F)cc1-c1ccc(S(=O)(=O)Nc2cccc(C)n2)cc1 [Example 147] | 29.5
16 | CC(=O)c1cccc(-c2ccc(S(=O)(=O)Nc3cccc(C)n3)cc2)c1 [Example 148] | 57.2
17 | CC(=O)Nc1ccc(-c2ccc(S(=O)(=O)Nc3cccc(C)n3)cc2)cc1 [Example 149] | 20.4
18 | Cc1cccc(NS(=O)(=O)c2ccc(-c3ccc(F)c(C)c3)cc2)n1 [Example 150] | 79.3
19 | Cc1cccc(NS(=O)(=O)c2ccc(/C=C/c3ccccc3)cc2)n1 [Example 151] | 59.8
20 | Cc1cccc(NS(=O)(=O)c2ccc(-c3cc(F)c(F)c(F)c3)cc2)n1 [Example 152] | 72.7
21 | Cc1cccc(NS(=O)(=O)c2ccc(-c3cccc(OC(F)(F)F)c3)cc2)n1 [Example 153] | 75.3
22 | Cc1cccc(NS(=O)(=O)c2ccc(-c3cccc(COc4ccccc4)c3)cc2)n1 [Example 155] | 83.3
23 | COc1c(C)cc(-c2ccc(S(=O)(=O)Nc3cccc(C)n3)cc2)cc1C [Example 156] | 65.6
24 | Cc1cccc(NS(=O)(=O)c2ccc(-c3ccc(C(F)(F)F)cc3)cc2)n1 [Example 157] | 100
25 | Cc1cccc(NS(=O)(=O)c2ccc(-c3ccc(S(C)(=O)=O)cc3)cc2)n1 [Example 158] | 71
26 | Cc1cccc(NS(=O)(=O)c2ccc(-c3ccc(OCc4ccccc4)cc3)cc2)n1 [Example 159] | 90.4
27 | Cc1cccc(NS(=O)(=O)c2ccc(-c3ccc(C(C)(C)C)cc3)cc2C)n1 [Example 175] | 59
28 | CCOc1ccccc1-c1ccc(S(=O)(=O)Nc2cccc(C)n2)c(C)c1 [Example 188] | 53
29 | Cc1cccc(-c2ccc(S(=O)(=O)Nc3cccc(C)n3)c(C)c2)c1 [Example 189] | 88

same assay, conditions: compound at 0.1 uM; read-out: % inh @ 0.1 uM

Row | SMILES | inhibition at 0.1 µM [%]
30 | Cc1cccc(NS(=O)(=O)c2ccc(-c3ccc(O)cc3)cc2C)n1 [Example 199] | 55
31 | Cc1cccc(NS(=O)(=O)c2ccc(-c3ccccc3C)c(C)c2)n1 [Example 218] | 56
32 | Cc1cccc(NS(=O)(=O)c2ccc(-c3cccc(C#N)c3)c(C)c2)n1 [Example 220] | 67
33 | Cc1cccc(-c2ccc(S(=O)(=O)Nc3cccc(C)n3)cc2C)c1 [Example 227] | 40
34 | CCOc1ccc(-c2ccc(S(=O)(=O)Nc3cccc(C)n3)cc2C)cc1 [Example 229] | 9
35 | Cc1cccc(NS(=O)(=O)c2ccc(-c3ccccc3F)c(C)c2)n1 [Example 230] | 23
36 | COc1ccc(-c2ccc(S(=O)(=O)Nc3cccc(C)n3)cc2C)cc1F [Example 231] | 63
37 | Cc1cccc(NS(=O)(=O)c2ccc(-c3ccc(S(C)(=O)=O)cc3)c(C)c2)n1 [Example 234] | 57
38 | CCc1ccc(-c2ccc(S(=O)(=O)Nc3cccc(C)n3)cc2C)cc1 [Example 235] | 87
39 | Cc1cccc(NS(=O)(=O)c2ccc(-c3cccc(Cl)c3Cl)c(C)c2)n1 [Example 237] | 58
40 | COc1ccc(C(C)C)cc1-c1ccc(S(=O)(=O)Nc2cccc(C)n2)cc1C [Example 239] | 65
41 | Cc1ccc(C)c(-c2ccc(S(=O)(=O)Nc3cccc(C)n3)cc2C)c1 [Example 240] | 89
42 | Cc1cccc(NS(=O)(=O)c2ccc(-c3c(C)cccc3C)c(C)c2)n1 [Example 241] | 64
43 | Cc1cccc(NS(=O)(=O)c2ccc(-c3ccc(F)cc3C)c(C)c2)n1 [Example 242] | 61
44 | COc1ccc(-c2ccc(S(=O)(=O)Nc3cccc(C)n3)cc2C)cc1C [Example 243] | 70
45 | Cc1cccc(NS(=O)(=O)c2ccc(-c3ccc(F)c(F)c3)c(C)c2)n1 [Example 244] | 86
46 | Cc1cccc(NS(=O)(=O)c2ccc(-c3ccc4c(c3)OCCO4)c(C)c2)n1 [Example 245] | 62
47 | CCCCc1ccc(-c2ccc(S(=O)(=O)Nc3cccc(C)n3)cc2C)cc1 [Example 246] | 65
48 | Cc1cccc(NS(=O)(=O)c2ccc(-c3ccc(CC(C)C)cc3)c(C)c2)n1 [Example 248] | 57
49 | Cc1cccc(NS(=O)(=O)c2ccc(-c3cn[nH]c3)cc2)n1 [Example 250] | 17
50 | Cc1cccc(NS(=O)(=O)c2ccc(-c3ccc(O)cc3)cc2)n1 [Example 252] | 44
51 | COc1ccc(-c2ccc(S(=O)(=O)Nc3cccc(C)n3)cc2)c(C)c1 [Example 255] | 64.6

Row | SMILES | inhibition at 0.1 µM [%]
52 | Cc1cccc(NS(=O)(=O)c2ccc(-c3ccccn3)cc2)n1 [Example 259, N-(6-Methyl-pyridin-2-yl)-4-pyridin-2-yl-benzenesulfonamide trifuoroacetate] | 30
53 | Cc1cccc(NS(=O)(=O)c2ccc(-c3cn(C)cn3)cc2)n1 [Example 260] | 14.8
54 | Cc1cccc(NS(=O)(=O)c2ccc(-c3ncccn3)nc2)n1 [Example 261] | 2.6
55 | Cc1cccc(NS(=O)(=O)c2ccc(-c3ccc(C(N)=O)cc3)cc2)n1 [Example 262, 4′-(6-Methyl-pyridin-2-ylsulfamoyl)-biphenyl-4-carboxylic acid amide] | 45.7
56 | Cc1cccc(NS(=O)(=O)c2ccc(-c3ccc(OCCN)cc3)cc2)n1 [Example 263, 4′-(2-Amino-ethoxy)-biphenyl-4-sulfonic acid (6-methyl-pyridin-2-yl)-amide] | 11.8
57 | Cc1cccc(NS(=O)(=O)c2ccc(-c3cnco3)cc2)n1 [Example 264, N-(6-Methyl-pyridin-2-yl)-4-oxazol-5-yl-benzenesulfonamide] | 39.7
58 | Cc1cccc(N(CCN(C)C)S(=O)(=O)c2ccc(-c3ccc(C#N)cc3)cc2)n1 [Example 265, 4′-Cyano-biphenyl-4-sulfonic acid (2-dimethylamino-ethyl)-(6-methyl-pyridin-2-yl)-amide] | 11.4
59 | Cc1cccc(N(CCO)S(=O)(=O)c2ccc(-c3ccc(C#N)cc3)cc2)n1 [Example 266, 4′-Cyano-biphenyl-4-sulfonic acid (2-hydroxy-ethyl)-(6-methyl-pyridin-2-yl)-amide] | 9.6
60 | Cc1cccc(NS(=O)(=O)c2ccc(N3CCCCC3)nc2)n1 [Example 269, N-(6-methylpyridin-2-yl)-6-piperidin-1-ylpyridine-3-sulfonamide] | 2.4
61 | Cc1cccc(NS(=O)(=O)c2ccc(-c3ccc(C#N)cn3)cc2)n1 [Example 275] | 85.7
62 | COc1cc(-c2ccc(C#N)cc2)ccc1S(=O)(=O)Nc1cccc(C)n1 [Example 276, 4′-Cyano-3-methoxy-biphenyl-4-sulfonic acid (6-methyl-pyridin-2-yl)-amide] | 60.1
63 | COc1ccc(C)nc1NS(=O)(=O)c1ccc(-c2ccc(C)cc2)cc1 [Example 278] | 42.8
64 | O=S(=O)(Nc1ccc2ccccc2n1)c1ccc(-c2ccccn2)cc1 [Example 287, 4-Pyridin-2-yl-N-quinolin-2-yl-benzenesulfonamide] | 67.1
65 | Cc1c(Cl)cccc1S(=O)(=O)Nc1cccc(NC(=O)C2CCCN2)n1 (stereo not drawn) [Example 296, Pyrrolidine-2-carboxylic acid [6-(3-chloro-2-methyl-benzenesulfonylamino)-pyridin-2-yl]-amide] | 16
66 | Cc1cccc(NS(=O)(=O)N2CCC(c3ccncc3)C2)n1 (stereo not drawn) [Example 297, 3-Pyridin-4-yl-pyrrolidine-1-sulfonic acid (6-methyl-pyridin-2-yl)-amide] | 3.4
67 | Cc1cccc(NS(=O)(=O)N2Cc3ccccc3C2)n1 [Example 298] | 13.3
68 | Cc1cccc(NS(=O)(=O)N2CCN3CCC[C@H]3C2)n1 [Example 302] | 18.1
69 | Cc1cccc(NS(=O)(=O)N2CCC(C#N)(c3ccccc3)CC2)n1 [Example 305] | 1.1
70 | Cc1cccc(NS(=O)(=O)N2CCC(c3ccccc3)(c3ccccc3)CC2)n1 [Example 307] | 29.5
71 | Cc1nnc2n1CCN(S(=O)(=O)Nc1ccc3ccccc3n1)CC2 [Example 312] | 6.9
72 | Cc1cccc(NS(=O)(=O)N2CC(Oc3ccc(F)cc3)C2)n1 [Example 313] | 27.2

Source: patent publication US20050148631A1, “Amino heterocyclyl inhibitors of 11-beta-hydroxy steroid dehydrogenase type 1” (AGOURON PHARMACEUTICALS, INC., priority 2003, published 2005)
